Measurements as given in patent US8846570B2, “Herbicidal compositions comprising 4-amino-3-chloro-5-fluoro-6-(4-chloro-2-fluoro-3-methoxyphenyl)pyridine-2-carboxylic acid or a derivative thereof and microtubule inhibiting herbicides” (Dow AgroSciences LLC, priority 2012, dated 2014).

How the values were obtained:
Assay type in all cases: in vivo
[1] = tested on: Cyperus difformis L. (CYPDI); assay: Postemergence foliar-applied, direct seeded rice, greenhouse: visual weed control; conditions: 20 DAA; 5.3 g ae/ha
Procedure: (§1) Seeds or nutlets of the desired test plant species were planted in a soil matrix prepared by mixing a loam or sandy loam soil (e.g., 28.6 percent silt, 18.8 percent clay, and 52.6 percent sand, with a pH of about 5.8 and an organic matter content of about 1.8 percent) and calcareous grit in an 80 to 20 ratio. The soil matrix was contained in plastic pots with a volume of 1 quart and a surface area of 83.6 cm^2. […] The plants were grown for 8-22 days in a greenhouse with an approximate 14 h photoperiod which was maintained at about 29° C. during the day and 26° C. during the night. Nutrients (Peters Excel® 15-5-15 5-Ca 2-Mg and iron chelate) were applied in the irrigation solution as needed and water was added on a regular basis. Supplemental lighting was provided with overhead metal halide 1000-Watt lamps as necessary. The plants were employed for testing when they reached the first through fourth true leaf stage.
(§2) Forms of compound A were applied on an acid equivalent basis.
(§3) For treatments comprised of formulated compounds, measured amounts of compounds were placed individually in 25 mL glass vials and diluted in a volume of 1.25% (v/v) Agri-Dex® crop oil concentrated to obtain 12× stock solutions. […] Application solutions were prepared by adding an appropriate amount of each stock solution (e.g., 1 mL) and diluted to the appropriate final concentrations with the addition of 10 mL of an aqueous mixture of 1.25% (v/v) crop oil concentrate so that the final spray solutions contained 1.25+/−0.05% (v/v) crop oil concentrate.
(§4) As required, additional water and/or 97:3 v/v acetone/DMSO was added to individual application solutions so that the final acetone and DMSO concentrations of the application solutions being compared were 8.1% and 0.25%, respectively.
(§5) All stock solutions and applications solutions were visually inspected for compound compatibility prior to application. Spray solutions were applied to the plant material with an overhead Mandel track sprayer equipped with a 8002E nozzles calibrated to deliver 187 L/ha over an application area of 0.503 m^2 at a spray height of 18 to 20 inches (46 to 50 cm) above average plant canopy height. Control plants were sprayed in the same manner with the solvent blank.
(§6) The treated plants and control plants were placed in a greenhouse as described above and watered by sub-irrigation to prevent wash-off of the test compounds. After approximately 3 weeks, the condition of the test plants as compared with that of the untreated plants was determined visually and scored on a scale of 0 to 100 percent where 0 corresponds to no injury or growth inhibition and 100 corresponds to complete kill.
(§7) Colby's equation was used to determine the herbicidal effects expected from the mixtures (Colby, S. R. 1967. Calculation of the synergistic and antagonistic response of herbicide combinations. Weeds 15:20-22.).
(§8) The following equation was used to calculate the expected activity of mixtures containing two active ingredients, A and B: Expected=A+B−(A×B/100)

[2] = tested on: Cyperus esculentus L. (CYPES); assay: as above; conditions: 20 DAA
Procedure: as §1, §2, §3, §4, §5, §6, §7, §8

[3] = tested on: Schoenoplectus juncoides (Roxb.) Palla (SCPJU); assay: as above; conditions: 20 DAA; 5.3 g ae/ha
Procedure: as §1, §2, §3, §4, §5, §6, §7, §8

[4] = tested on: Amaranthus retroflexus L. (AMARE); assay: Postemergence foliar-applied, cereal crops, greenhouse: visual weed control; conditions: 21 DAA
Procedure: (§9) Seeds of the desired test plant species were planted in Sun Gro MetroMix® 306 planting mixture, which typically has a pH of 6.0 to 6.8 and an organic matter content of about 30 percent, in plastic pots with a surface area of 103.2 square centimeters (cm^2). When required to ensure good germination and healthy plants, a fungicide treatment and/or other chemical or physical treatment was applied. The plants were grown for 7-36 days in a greenhouse with an approximate 14 hour photoperiod which was maintained at about 18° C. during the day and about 17° C. during the night. Nutrients and water were added on a regular basis and supplemental lighting was provided with overhead metal halide 1000-Watt lamps as necessary. The plants were employed for testing when they reached the second or third true leaf stage.
(§10) Treatments consisted of the benzyl ester of 4-amino-3-chloro-5-fluoro-6-(4-chloro-2-fluoro-3-methoxy-phenyl)pyridine-2-carboxylic acid (Compound A), formulated as an SC, a second cereal herbicide alone and then both in combination.
(§11) Other herbicidal components were applied on an active ingredient basis and included microtubule-inhibiting herbicides.
(§12) Measured aliquots of benzyl ester of 4-amino-3-chloro-5-fluoro-6-(4-chloro-2-fluoro-3-methoxy-phenyl)pyridine-2-carboxylic acid (Compound A) were placed in 25 milliliter (mL) glass vials and diluted in a volume of 1.25% (v/v) Agri-Dex® crop oil concentrate to obtain stock solutions. Compound requirements are based upon a 12 mL application volume at a rate of 187 liters per hectare (L/ha). Spray solutions of the second cereal herbicide and experimental compound mixtures were prepared by adding the stock solutions to the appropriate amount of dilution solution to form 12 mL spray solution with active ingredients in two- and three-way combinations. Formulated compounds were applied to the plant material with an overhead Mandel track sprayer equipped with an 8002E nozzle calibrated to deliver 187 L/ha over an application area of 0.503 square meters (m^2) at a spray height of 18 inches (46 cm) above average plant canopy. Control plants were sprayed in the same manner with the solvent blank.
as §6, with “20-22 days,” for “approximately 3 weeks,”, “control” for “untreated”, “injury” for “injury or growth inhibition”
as §7, §8

[5] = tested on: Chenopodium album L. (CHEAL); assay: as above; conditions: 21 DAA
Procedure: as §9, §10, §11, §12
as §6, with “20-22 days,” for “approximately 3 weeks,”, “control” for “untreated”, “injury” for “injury or growth inhibition”
as §7, §8

[6] = tested on: Cirsium arvense (L.) Scop. (CIRAR); assay: as above; conditions: 21 DAA
Procedure: as §9, §10, §11, §12
as §6, with “20-22 days,” for “approximately 3 weeks,”, “control” for “untreated”, “injury” for “injury or growth inhibition”
as §7, §8

[7] = tested on: Kochia scoparia (L.) Schrad. (KCHSC); assay: as above; conditions: 21 DAA
Procedure: as §9, §10, §11, §12
as §6, with “20-22 days,” for “approximately 3 weeks,”, “control” for “untreated”, “injury” for “injury or growth inhibition”
as §7, §8

[8] = tested on: Lamium purpureum L. (LAMPU); assay: as above; conditions: 21 DAA
Procedure: as §9, §10, §11, §12
as §6, with “20-22 days,” for “approximately 3 weeks,”, “control” for “untreated”, “injury” for “injury or growth inhibition”
as §7, §8

[9] = tested on: Papaver rhoeas L. (PAPRH); assay: as above; conditions: 21 DAA
Procedure: as §9, §10, §11, §12
as §6, with “20-22 days,” for “approximately 3 weeks,”, “control” for “untreated”, “injury” for “injury or growth inhibition”
as §7, §8

[10] = tested on: Sinapis arvensis L. (SINAR); assay: as above; conditions: 21 DAA
Procedure: as §9, §10, §11, §12
as §6, with “20-22 days,” for “approximately 3 weeks,”, “control” for “untreated”, “injury” for “injury or growth inhibition”
as §7, §8

[11] = tested on: Stellaria media (L.) Vill. (STEME); assay: as above; conditions: 21 DAA
Procedure: as §9, §10, §11, §12
as §6, with “20-22 days,” for “approximately 3 weeks,”, “control” for “untreated”, “injury” for “injury or growth inhibition”
as §7, §8

SMILES: COc1c(Cl)ccc(-c2nc(C(=O)O)c(Cl)c(N)c2F)c1F [Compound A Acid, 4-amino-3-chloro-6-(4-chloro-2-fluoro-3-methoxyphenyl)-5-fluoropyridine-2-carboxylic acid]
- Visual Weed Control (%) Obs [1]: 80%
- Visual Weed Control (%) Obs ([2]; 5.3 g ae/ha): 0%
- Visual Weed Control (%) Obs ([2]; 10.6 g ae/ha): 90%
- Visual Weed Control (%) Obs [3]: 25%

SMILES: COc1c(Cl)ccc(-c2nc(C(=O)OCc3ccccc3)c(Cl)c(N)c2F)c1F [Compound A Benzyl Ester, benzyl ester of 4-amino-3-chloro-5-fluoro-6-(4-chloro-2-fluoro-3-methoxy-phenyl)pyridine-2-carboxylic acid]
- Visual Weed Control (%) Obs ([4]; 2.5 g ai/ha): 20%
- Visual Weed Control (%) Obs ([4]; 5 g ai/ha): 38%
- Visual Weed Control (%) Obs ([5]; 2.5 g ai/ha): 50%
- Visual Weed Control (%) Obs ([5]; 5 g ai/ha): 58%
- Visual Weed Control (%) Obs ([6]; 2.5 g ai/ha): 48%
- Visual Weed Control (%) Obs ([6]; 5 g ai/ha): 39%
- Visual Weed Control (%) Obs ([6]; 10 g ai/ha): 60%
- Visual Weed Control (%) Obs ([7]; 2.5 g ai/ha): 20%
- Visual Weed Control (%) Obs ([7]; 5 g ai/ha): 41%
- Visual Weed Control (%) Obs ([7]; 10 g ai/ha): 62%
- Visual Weed Control (%) Obs ([8]; 2.5 g ai/ha): 80%
- Visual Weed Control (%) Obs ([8]; 5 g ai/ha): 86%
- Visual Weed Control (%) Obs ([8]; 10 g ai/ha): 94%
- Visual Weed Control (%) Obs ([9]; 2.5 g ai/ha): 48%
- Visual Weed Control (%) Obs ([9]; 5 g ai/ha): 28%
- Visual Weed Control (%) Obs ([9]; 10 g ai/ha): 35%
- Visual Weed Control (%) Obs ([10]; 2.5 g ai/ha): 70%
- Visual Weed Control (%) Obs ([10]; 5 g ai/ha): 73%
- Visual Weed Control (%) Obs ([11]; 2.5 g ai/ha): 25%
- Visual Weed Control (%) Obs ([11]; 5 g ai/ha): 25%
- Visual Weed Control (%) Obs ([11]; 10 g ai/ha): 27%

SMILES: CCC(CC)Nc1c([N+](=O)[O-])cc(C)c(C)c1[N+](=O)[O-] [Pendimethalin, N-(1-ethylpropyl)-3,4-dimethyl-2,6-dinitrobenzenamine, reference compound]
- Visual Weed Control (%) Obs ([4]; 150 g ai/ha): 3%
- Visual Weed Control (%) Obs ([4]; 300 g ai/ha): 5%
- Visual Weed Control (%) Obs ([5]; 150 g ai/ha): 0%
- Visual Weed Control (%) Obs ([5]; 300 g ai/ha): 0%
- Visual Weed Control (%) Obs ([6]; 150 g ai/ha): 10%
- Visual Weed Control (%) Obs ([6]; 300 g ai/ha): 10%
- Visual Weed Control (%) Obs ([6]; 600 g ai/ha): 10%
- Visual Weed Control (%) Obs ([7]; 150 g ai/ha): 10%
- Visual Weed Control (%) Obs ([7]; 300 g ai/ha): 10%
- Visual Weed Control (%) Obs ([7]; 600 g ai/ha): 57%
- Visual Weed Control (%) Obs ([8]; 150 g ai/ha): 0%
- Visual Weed Control (%) Obs ([8]; 300 g ai/ha): 25%
- Visual Weed Control (%) Obs ([8]; 600 g ai/ha): 53%
- Visual Weed Control (%) Obs ([9]; 150 g ai/ha): 18%
- Visual Weed Control (%) Obs ([9]; 300 g ai/ha): 38%
- Visual Weed Control (%) Obs ([9]; 600 g ai/ha): 75%
- Visual Weed Control (%) Obs ([10]; 150 g ai/ha): 3%
- Visual Weed Control (%) Obs ([10]; 300 g ai/ha): 5%
- Visual Weed Control (%) Obs ([11]; 150 g ai/ha): 3%
- Visual Weed Control (%) Obs ([11]; 300 g ai/ha): 5%
- Visual Weed Control (%) Obs ([11]; 600 g ai/ha): 17%
